The values below come from ChEMBL document CHEMBL1142418, “CoMFA and HQSAR studies on 6,7-dimethoxy-4-pyrrolidylquinazoline derivatives as phosphodiesterase10A inhibitors” (Bioorg Med Chem, 2008).

In one experiment the target is cGMP-inhibited 3',5'-cyclic phosphodiesterase 3A (Homo sapiens, UniProt Q14432). Kind of experiment: Inhibition of PDE3A.
cGMP-inhibited 3',5'-cyclic phosphodiesterase 3A, sequence (Q14432 whole entry): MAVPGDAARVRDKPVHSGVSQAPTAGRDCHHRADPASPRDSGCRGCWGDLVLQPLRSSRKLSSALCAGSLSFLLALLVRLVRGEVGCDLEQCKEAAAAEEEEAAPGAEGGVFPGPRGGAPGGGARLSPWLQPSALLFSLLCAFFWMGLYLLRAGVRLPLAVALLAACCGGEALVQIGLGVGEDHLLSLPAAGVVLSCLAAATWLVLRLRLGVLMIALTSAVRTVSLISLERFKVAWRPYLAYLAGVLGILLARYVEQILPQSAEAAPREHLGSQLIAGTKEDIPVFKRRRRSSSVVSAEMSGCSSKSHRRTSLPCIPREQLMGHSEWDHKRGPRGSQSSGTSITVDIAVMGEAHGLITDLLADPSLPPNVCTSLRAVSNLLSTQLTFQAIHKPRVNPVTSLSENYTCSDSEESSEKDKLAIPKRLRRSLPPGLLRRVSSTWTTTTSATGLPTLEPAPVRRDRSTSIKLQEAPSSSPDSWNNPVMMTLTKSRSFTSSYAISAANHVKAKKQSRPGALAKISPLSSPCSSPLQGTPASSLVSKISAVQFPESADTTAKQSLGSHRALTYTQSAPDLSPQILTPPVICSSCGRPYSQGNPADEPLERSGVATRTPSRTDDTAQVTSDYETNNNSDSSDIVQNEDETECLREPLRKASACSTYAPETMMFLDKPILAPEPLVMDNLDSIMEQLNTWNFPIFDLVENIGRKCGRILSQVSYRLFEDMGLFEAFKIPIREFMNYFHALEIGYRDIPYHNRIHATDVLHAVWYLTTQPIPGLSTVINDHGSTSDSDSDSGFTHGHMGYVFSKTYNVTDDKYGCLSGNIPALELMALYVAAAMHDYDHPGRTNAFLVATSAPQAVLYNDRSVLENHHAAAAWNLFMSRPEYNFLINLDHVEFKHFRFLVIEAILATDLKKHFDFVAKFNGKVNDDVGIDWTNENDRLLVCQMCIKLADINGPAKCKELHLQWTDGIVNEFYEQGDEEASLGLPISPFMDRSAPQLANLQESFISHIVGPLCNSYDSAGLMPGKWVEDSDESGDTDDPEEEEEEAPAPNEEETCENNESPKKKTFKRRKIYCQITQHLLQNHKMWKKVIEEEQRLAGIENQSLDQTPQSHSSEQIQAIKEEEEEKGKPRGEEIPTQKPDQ
Turning to `COc1cc2ncnc(N3CC[C@@H](Oc4cccc(C(C)C)c4)C3)c2cc1OC`, affinity was put at a Ki of 370 nM.

`COc1cc2ncnc(N3CC[C@@H](Oc4ccc(OC(F)(F)F)cc4)C3)c2cc1OC` yielded an inhibitory constant (Ki) of 739 nM.

The target of the next experiment is cAMP and cAMP-inhibited cGMP 3',5'-cyclic phosphodiesterase 10A (Homo sapiens, UniProt Q9Y233). Kind of experiment: Inhibition of PDE10A.
cAMP and cAMP-inhibited cGMP 3',5'-cyclic phosphodiesterase 10A, sequence (Q9Y233 whole entry): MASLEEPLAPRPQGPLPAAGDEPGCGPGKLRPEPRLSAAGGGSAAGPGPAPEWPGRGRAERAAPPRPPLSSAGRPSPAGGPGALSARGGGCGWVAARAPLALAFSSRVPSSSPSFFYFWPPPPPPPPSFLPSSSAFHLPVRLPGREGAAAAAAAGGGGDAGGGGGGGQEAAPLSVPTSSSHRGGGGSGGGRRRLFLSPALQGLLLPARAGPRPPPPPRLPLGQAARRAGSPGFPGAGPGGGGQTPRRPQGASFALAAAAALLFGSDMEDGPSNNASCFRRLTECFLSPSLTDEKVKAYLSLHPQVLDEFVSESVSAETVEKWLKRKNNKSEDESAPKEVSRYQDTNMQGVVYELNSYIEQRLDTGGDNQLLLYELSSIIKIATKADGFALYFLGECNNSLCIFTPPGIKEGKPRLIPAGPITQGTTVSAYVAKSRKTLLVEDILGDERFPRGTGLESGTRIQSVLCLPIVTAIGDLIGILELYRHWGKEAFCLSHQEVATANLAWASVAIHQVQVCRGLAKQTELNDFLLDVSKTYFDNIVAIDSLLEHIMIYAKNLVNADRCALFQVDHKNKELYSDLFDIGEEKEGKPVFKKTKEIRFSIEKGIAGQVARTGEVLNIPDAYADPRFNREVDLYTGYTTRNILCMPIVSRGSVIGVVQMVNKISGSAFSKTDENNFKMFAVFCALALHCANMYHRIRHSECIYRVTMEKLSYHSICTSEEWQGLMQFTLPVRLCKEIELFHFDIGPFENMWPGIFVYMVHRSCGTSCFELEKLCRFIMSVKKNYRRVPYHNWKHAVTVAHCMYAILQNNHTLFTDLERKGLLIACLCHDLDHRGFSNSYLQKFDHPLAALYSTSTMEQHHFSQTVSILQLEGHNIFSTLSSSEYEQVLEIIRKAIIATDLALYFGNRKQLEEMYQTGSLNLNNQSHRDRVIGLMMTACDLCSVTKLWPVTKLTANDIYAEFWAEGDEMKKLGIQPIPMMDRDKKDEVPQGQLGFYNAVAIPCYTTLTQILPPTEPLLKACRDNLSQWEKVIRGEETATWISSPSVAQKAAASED
With `COc1cc2ncnc(N3CC[C@@H](Oc4cccc(-c5ccccc5)c4)C3)c2cc1OC`, the Ki came out at 136 nM. For `COc1ccc2ccc(O[C@@H]3CCN(c4ncnc5cc(OC)c(OC)cc45)C3)cc2c1`, the affinity, expressed as Ki, was 17 nM. On the same count and under the same terms, with `CCOc1cccc(O[C@@H]2CCN(c3ncnc4cc(OC)c(OC)cc34)C2)c1` the figure was 94 nM; with `COc1cc2ncnc(N3CC[C@@H](Oc4cc5ccccc5cn4)C3)c2cc1OC`, 19 nM; with `COc1cc2ncnc(N3CC[C@@H](Oc4ccncc4)C3)c2cc1OC`, 112 nM. Compound `COc1cc2ncnc(N3CC[C@@H](Oc4ccccn4)C3)c2cc1OC` returned a Ki of 123 nM. On to `COc1ccc2cc(O[C@@H]3CCN(c4ncnc5cc(OC)c(OC)cc45)C3)ccc2c1`, for which the Ki is 18 nM. On to `COc1cc2ncnc(N3CC[C@@H](Oc4ccccc4C)C3)c2cc1OC`, for which affinity was put at a Ki of 326 nM.

`COc1cc2ncnc(N3CC[C@@H](Oc4ccc5ncccc5c4)C3)c2cc1OC` gave a Ki of 12 nM. Compound `COc1cc2ncnc(N3CC[C@@H](Oc4cccc5ccccc45)C3)c2cc1OC` returned a Ki of 210 nM.

Compound `COc1cc2ncnc(N3CC[C@@H](Oc4cccnc4)C3)c2cc1OC` yielded a Ki of 128 nM. The same measure, in the same setting: with `CCOc1ccc(O[C@@H]2CCN(c3ncnc4cc(OC)c(OC)cc34)C2)cc1` the figure was 54 nM; with `COc1cc2ncnc(N3CC[C@@H](Oc4ncc(Cl)cn4)C3)c2cc1OC`, 44 nM; with `COc1cc2ncnc(N3CC[C@@H](Oc4ccc(C(C)(C)C)cc4)C3)c2cc1OC`, 100 nM. On the same count and under the same terms, with `COc1cc2ncnc(N3CC[C@@H](Oc4ccc5c(c4)CCC5)C3)c2cc1OC` the figure was 68 nM; with `COc1cc2ncnc(N3CC[C@@H](Oc4ccccc4Cl)C3)c2cc1OC`, 198 nM. The compound `COc1cc2ncnc(N3CC[C@@H](Oc4ccccc4C#N)C3)c2cc1OC` had a Ki of 130 nM. On the same count and under the same terms, with `COc1cc2ncnc(N3CC[C@@H](Oc4ccc5cccnc5c4)C3)c2cc1OC` the figure was 12 nM.

In turn, `COc1cc2ncnc(N3CC[C@@H](Oc4ccc5nc(C)ccc5c4)C3)c2cc1OC` registered a Ki of 18 nM.

The compound `COc1ccc(O[C@@H]2CCN(c3ncnc4cc(OC)c(OC)cc34)C2)cc1OC` returned a Ki of 67 nM. Still for that read-out and setting: with `COc1cc2ncnc(N3CC[C@@H](Oc4ccccc4OC)C3)c2cc1OC` the figure was 240 nM. `COc1cc2ncnc(N3CC[C@@H](Oc4ccccc4C(F)(F)F)C3)c2cc1OC` returned a Ki of 811 nM. Regarding `COc1cc2ncnc(N3CC[C@@H](Oc4cccc(C(C)C)c4)C3)c2cc1OC`, the Ki worked out at 171 nM. In turn, `COc1cc2ncnc(N3CC[C@@H](Oc4ccc(OC(F)(F)F)cc4)C3)c2cc1OC` returned a Ki of 185 nM.

The next experiment deals with cGMP-inhibited 3',5'-cyclic phosphodiesterase 3B (Homo sapiens, UniProt Q13370). Kind of experiment: Inhibition of PDE3B.
cGMP-inhibited 3',5'-cyclic phosphodiesterase 3B, sequence (Q13370 whole entry): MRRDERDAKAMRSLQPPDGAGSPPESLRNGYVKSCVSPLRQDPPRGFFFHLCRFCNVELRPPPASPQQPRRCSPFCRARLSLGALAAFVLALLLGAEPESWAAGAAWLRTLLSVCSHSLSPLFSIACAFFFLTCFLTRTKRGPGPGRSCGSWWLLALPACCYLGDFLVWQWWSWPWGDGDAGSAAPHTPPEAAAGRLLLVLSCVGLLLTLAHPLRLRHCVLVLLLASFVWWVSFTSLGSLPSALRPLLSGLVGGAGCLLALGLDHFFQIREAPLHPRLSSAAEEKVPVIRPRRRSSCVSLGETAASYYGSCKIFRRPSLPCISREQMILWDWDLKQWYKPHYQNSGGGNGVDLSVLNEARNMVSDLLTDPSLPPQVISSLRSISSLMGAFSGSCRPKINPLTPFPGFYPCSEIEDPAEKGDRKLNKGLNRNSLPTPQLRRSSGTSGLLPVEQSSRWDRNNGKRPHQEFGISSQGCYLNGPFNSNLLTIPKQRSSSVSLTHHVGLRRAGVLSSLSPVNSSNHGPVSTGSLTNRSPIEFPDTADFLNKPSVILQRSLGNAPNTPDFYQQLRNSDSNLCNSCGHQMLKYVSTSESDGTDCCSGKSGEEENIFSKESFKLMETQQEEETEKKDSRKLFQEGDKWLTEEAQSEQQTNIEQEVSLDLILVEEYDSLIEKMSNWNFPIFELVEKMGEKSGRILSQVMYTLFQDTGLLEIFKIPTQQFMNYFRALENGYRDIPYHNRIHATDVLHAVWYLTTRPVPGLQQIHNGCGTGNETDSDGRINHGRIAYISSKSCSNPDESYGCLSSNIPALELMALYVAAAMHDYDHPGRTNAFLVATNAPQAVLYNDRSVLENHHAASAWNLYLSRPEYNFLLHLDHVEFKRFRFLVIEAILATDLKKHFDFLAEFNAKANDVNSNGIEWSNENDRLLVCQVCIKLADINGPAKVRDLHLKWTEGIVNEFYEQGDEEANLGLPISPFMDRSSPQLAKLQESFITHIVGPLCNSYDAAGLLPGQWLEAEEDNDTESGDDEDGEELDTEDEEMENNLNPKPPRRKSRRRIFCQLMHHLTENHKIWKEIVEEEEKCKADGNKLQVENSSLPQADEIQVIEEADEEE
Consider `COc1cc2ncnc(N3CC[C@@H](Oc4cccc(C(C)C)c4)C3)c2cc1OC`, for which affinity was put at a Ki of 474 nM. In turn, `COc1cc2ncnc(N3CC[C@@H](Oc4ccc(OC(F)(F)F)cc4)C3)c2cc1OC` gave a Ki of 1820 nM.

What is called Ki is the equilibrium dissociation constant of an inhibitor or competing ligand from its target. Read a low Ki as higher affinity.
